These results are taken from paper PMC5332298 (Nature cell biology, 2017).

Read-outs that look alike come from different tables or passages of the source.

Series [1] deals with LINK-A-PIP3 interaction. The series is described as follows: RNA-lipid overlay assay on PIP arrays with soluble competitors. The class given is binding. The following applies: 100:1 molar ratio to RNA.
Series [2] concerns LINK-A-PIP3 interaction. The series is described as follows: RNA-lipid vesicles. The class given is binding. The following applies: 100:1 molar ratio to PIP3.
For series [3], the system named is LINK-A-PIP3 interaction in MDA-MB-231 cells. The experiment in a line: RIP assay using a PIP3 antibody. The following applies: MDA-MB-231 cells treated with PI3K inhibitor.
Series [4] relates to MDA-MB-231 spheroids. The experiment in a line: 3-D spheroid fluorometric proliferation/viability assay. The class given is cell-based, Human. The following applies: for proliferation (growth) of spheroids: 50 nM MK2206 or 25 nM perifosine, 4 days.
Series [5] has as its system MDA-MB-231 spheroids. The experiment in a line: 3D spheroid BME cell invasion assay. The class given is cell-based, Human. The following applies: 50 nM MK2206 or 25 nM perifosine, 4 days.
In a further series the target is AKT-PIP3 binding (Homo sapiens, UniProt P31749). The experiment in a line: biochemical.
Series [6] has as its system MS2-LINK-A-PIP3 interaction in MDA-MB-231 cells. The experiment in a line: MS2-TRAP assay with PIP3 mass ELISA. The class given is cell-based, Human. The following applies: cell permeable competitor 100 µM, 2 hrs. For orientation: In an ELISA, binding on a coated surface is turned into a signal by an enzyme label.
Series [7] addresses AKT (His6-tagged recombinant, ThermoFisher) (UniProt P31749 1-480). The experiment in a line: Alpha competition assay.

Chain of AKT-PIP3 binding (P31749 whole entry): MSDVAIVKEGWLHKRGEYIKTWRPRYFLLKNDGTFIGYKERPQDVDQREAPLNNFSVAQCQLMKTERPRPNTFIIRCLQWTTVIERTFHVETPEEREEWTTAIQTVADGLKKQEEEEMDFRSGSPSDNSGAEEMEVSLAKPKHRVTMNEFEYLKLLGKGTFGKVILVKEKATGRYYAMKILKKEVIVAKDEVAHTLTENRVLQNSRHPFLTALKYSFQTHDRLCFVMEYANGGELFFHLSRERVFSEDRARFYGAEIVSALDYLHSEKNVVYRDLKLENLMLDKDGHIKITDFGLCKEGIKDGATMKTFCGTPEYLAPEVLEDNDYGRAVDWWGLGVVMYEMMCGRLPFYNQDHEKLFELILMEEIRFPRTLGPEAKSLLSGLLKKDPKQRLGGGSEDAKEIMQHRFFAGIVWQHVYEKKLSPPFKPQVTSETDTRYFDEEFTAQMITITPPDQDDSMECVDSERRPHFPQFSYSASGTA
Chain of AKT (His6-tagged recombinant, ThermoFisher) (P31749 whole entry): as above

As for `O=P(O)(O)OC1[C@H](O)[C@H](OP(=O)(O)O)C(OP(=O)(O)O)[C@H](OP(=O)(O)O)[C@H]1O` (stereo partly drawn) [IP4, D-myo-Inositol 1,3,4,5-tetrakisphosphate], the “effect of soluble competitor on LINK-A binding to PIP array” value with LINK-A-PIP3 interaction [1] is “abolished”. For the same molecule, the “effect of competitor on recruitment of LINK-A ΔPC to PIP3-containing GUVs” value with LINK-A-PIP3 interaction [2] is recorded as “abolished”.

Consider `O=c1cc(N2CCOCC2)oc2c(-c3ccccc3)cccc12` [LY294002], for which, in series [3], the “LINK-A-PIP3 interaction in vivo (RIP with PIP3 antibody)” value is recorded as “abolished”.

For `NC1(c2ccc(-c3nc4ccn5c(=O)[nH]nc5c4cc3-c3ccccc3)cc2)CCC1` [MK2206], the entries for the “proliferation (growth) of spheroids” value in the series with MDA-MB-231 spheroids [4] (LINK-A PIP3-BM−/− spheroids) and in the series on MDA-MB-231 spheroids [4] (LINK-A PIP3BM+/+ spheroids) were “efficiently inhibited” and “undetectable effect”, respectively. Besides, the invasion of spheroids result with MDA-MB-231 spheroids [5] (LINK-A PIP3-BM−/− spheroids) is “efficiently inhibited”; with MDA-MB-231 spheroids [5] (LINK-A PIP3BM+/+ spheroids) it was “undetectable effect”. Besides, the “antagonism of the inhibitory effect by FL LINK-A” value on AKT-PIP3 binding (in vitro, presence of FL LINK-A) came out at 753 fold.

On to `O=P(O)(O)OC1[C@@H](OP(=O)(O)O)[C@H](OP(=O)(O)O)C(O)[C@H](OP(=O)(O)O)[C@H]1OP(=O)(O)O` (stereo partly drawn) [PI(1,3,4,5,6)P5], for which, in series [6], the “MS2-LINK-A-associated PIP3 (PIP3 mass ELISA)” value is reported as “impaired”.

As a reminder, the IC50 is the midpoint of a concentration-inhibition curve. High values mean a need for much substance, low ones inhibition by little substance. With `CCCCCCCCCCCCCCCCCCOP(=O)([O-])OC1CC[N+](C)(C)CC1` [perifosine], the “proliferation (growth) of spheroids” value in the series with MDA-MB-231 spheroids [4] (LINK-A PIP3-BM−/− spheroids) is “efficiently inhibited”; in the series on MDA-MB-231 spheroids [4] (LINK-A PIP3BM+/+ spheroids), “undetectable effect”. Also, the “sensitization of LINK-A PIP3-BM−/− spheroids vs PIP3-BM+/+” value in the series on MDA-MB-231 spheroids [4] (spheroid viability IC50) is recorded as “about 20,000 fold”. Further, the invasion of spheroids result in the series on MDA-MB-231 spheroids [5] (LINK-A PIP3-BM−/− spheroids) is “efficiently inhibited”; in the series on MDA-MB-231 spheroids [5] (LINK-A PIP3BM+/+ spheroids) it was “undetectable effect”. For the same molecule, the “antagonism of the inhibitory effect by FL LINK-A” value on AKT-PIP3 binding stood at 140 fold. For the same molecule, at AKT-PIP3 binding (IC50 for inhibiting AKT-PIP3 binding), the IC50 was found to be 4.8 µM.

Consider “Phosphatidylinositol-3,4,5-trisphosphate [PIP3]”, for which the “effect of soluble competitor on LINK-A binding to PIP array” value with LINK-A-PIP3 interaction [1] was “abolished”.

For the molecule CAGGGUAGACUCGCUCUG (structured_RNA) [LINK-A nt 1100-1117 WT], the binding result in series [7] is “binds”.
